# What was measured:
# mouse splenic T cells = assay: MTT assessment of mouse splenic T cell survival following chemotherapy treatment in vitro; format: cell-based; conditions: 10 nmol/L, 72 h
# Procedure: About 100,000 T cells were seeded per well in a 96-well plate and treated with
# increasing doses of docetaxel, paclitaxel, or carboplatin for 72 h. Next, T cells were incubated with Thiazolyl Blue Tetrazolium Bromide (0.5 mg/ml, Sigma Aldrich, Cat. No. 298-93-1) for 3 hr in the dark at 37 degrees Celsius. Subsequently, T cells were incubated for 16 h in the dark in a lysis buffer (40% dimerhylofrmamide, 0.55 mol/L sodium dodecyl sulfate, 2% acetic acid, 8.4 mmol/L HCl in MilliQ water). Plates were read with a 565 nm wavelength.
# MMTV-PyMT tumors = assay: Drug treatment in vivo of mice bearing MMTV-PyMT tumors; parameters: species or system mouse
# Procedure: For tumor generation, tumor organoids were transplanted into the 4th mammary fat pad of FVB female mice. Rimadyl (0.067 mg/ml, Zoetis) was administered to mice in the drinking water from 24 h before surgery and for 48 h after surgery. Mice were also treated with temgesic (0.1 mg/kg, Indivior Europe Limited), 1 hr before and 12 h after surgery. Mice were anesthetized with isoflurane (2%, v/v) and their eyes were covered with duratears (Alcon). About 100,000 single cells derived from KB1P organoids or 200,000 single cells derived from MMTV-PyMT organoids were injected in 30 μl of BME (Amsbio, Cat. No. 3533-005-02). Mice were weighed and monitored three times a week after transplantation of tumor organoids. Tumor volume was measured with calipers three times weekly. The researcher performing the measurement of tumor volume was blinded to the treatment group. For survival experiments, endpoint was reached when tumor reached 2000 mm3. For specific experiments, reference is made to the schematic representations of treatment timelines depicted in the figures.
# Once tumors were established and reached a size of ˜7×7 mm, mice were randomized into treatment groups with the following drug dosages and timeline: • AC+T treatment: every 14 days, cyclophosphamide (144 mg/kg, administered via intraperitoneal injection), doxorubicin (5 mg/kg, administered via intravenous injection) and docetaxel (25 mg/kg, resuspended in acetonitrile containing 0.1% acetic acid, administered via intravenous injection). Doxorubicin hydrochloride (Adriamycin) and cyclophosphamide (C), when combined in a treatment, are herein referred to as “AC”. Taxanes, as broadly described and disclosed herein, are referred to as “T”. […]
smiles,measurement,setting,value
CC(=O)O[C@@]12CO[C@@H]1C[C@H](O)[C@@]1(C)C(=O)[C@H](O)C3=C(C)[C@@H](OC(=O)[C@H](O)[C@@H](NC(=O)OC(C)(C)C)c4ccccc4)C[C@@](O)([C@@H](OC(=O)c4ccccc4)[C@H]21)C3(C)C [docetaxel],killing of T cells (MTT),mouse splenic T cells,did not induce significant killing of T cells
same,anti-tumor effects of docetaxel (survival) upon T cell depletion,"MMTV-PyMT tumors; depletion of CD4 alone, CD8 alone or both",abrogated the anti-tumor effects
same,tumor outgrowth,MMTV-PyMT tumors; docetaxel 25 mg/kg intravenous every 14 days vs vehicle,delayed tumor outgrowth
same,accumulation of mitotic figures in tumors,MMTV-PyMT tumors; tumors isolated 24 h after the second docetaxel administration,did not observe an accumulation of mitotic figures
